Among the test systems are SW-620 colon; RPMI-8226 leukemia; OVCAR-4 ovarian; SNB-75 CNS; UO-31 renal; HOP-92 NSCLC; MCF7 breast; MALME-3M melanoma.
Common to all, as to assay: inhibition of tumour cell growth, NCI panel, 48 h

Eleven molecules from PubChem BioAssay (NCI) can be followed below.

The structures appear in SMILES notation.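 Method: 48-hour compound exposure of cells in 96-well plates, five concentrations, linear interpolation of endpoints. GI50 marks 50% less growth. At the TGI there is no net growth.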 A value given as a limit tells only on which side of the number the result lay.

As to `C/C=C\C(C)=C/C(C)C(=O)CC(O)CC1CC(=O)NC(=O)C1` (centres undefined), the TGI in the assay on SW-620 colon is greater than 100 µM; with RPMI-8226 leukemia it was greater than 76.6 µM; in the assay with OVCAR-4 ovarian it was greater than 100 µM; with SNB-75 CNS, 68.2 µM; in the assay on UO-31 renal, greater than 100 µM; with HOP-92 NSCLC, greater than 100 µM. The TGI with MCF7 breast was greater than 100 µM.

Regarding `CCS(=O)(=O)Nc1ccc(Oc2ccc(F)cc2F)c(-c2cn(C)c(=O)c3[nH]ccc23)c1`, the GI50 in the assay with SW-620 colon was 1.65 µM; in the assay with MALME-3M melanoma it was 0.202 µM; in the assay on RPMI-8226 leukemia, less than 0.0232 µM; with OVCAR-4 ovarian, 0.275 µM; in the assay on SNB-75 CNS, less than 0.01 µM; in the assay with UO-31 renal it was less than 0.01 µM. Besides, in the assay on MCF7 breast, the GI50 is less than 0.01 µM. The TGI in the assay on SW-620 colon was 25.8 µM; in the assay with MALME-3M melanoma, 12.9 µM; with RPMI-8226 leukemia, 17.5 µM; in the assay with OVCAR-4 ovarian, 37 µM; in the assay with SNB-75 CNS, 0.986 µM; in the assay on UO-31 renal, 12 µM. The figures for the TGI with HOP-92 NSCLC and in the assay on MCF7 breast were 28.3 µM and 14.3 µM, respectively.

As for `CCCCCCCCCCCCOC1C(C(COC2OC(C(O)CO)C3OC(C)(C)OC23)OC(=O)Nc2ccc([N+](=O)[O-])cc2)OC2OC(C)(C)OC21` (centres undefined), the GI50 is 1.79 µM with SW-620 colon; 3.16 µM with MALME-3M melanoma; 2.7 µM in the assay on RPMI-8226 leukemia; 7.09 µM with OVCAR-4 ovarian; 3.64 µM with SNB-75 CNS; 3.62 µM in the assay with UO-31 renal. Besides, the GI50 is 3.82 µM in the assay with HOP-92 NSCLC and 2.69 µM in the assay with MCF7 breast. The TGI with SW-620 colon is 3.33 µM; in the assay on MALME-3M melanoma it was 9.64 µM; in the assay with RPMI-8226 leukemia, 7.2 µM; with OVCAR-4 ovarian, 23.5 µM; with SNB-75 CNS, 16.1 µM; in the assay with UO-31 renal, 12.9 µM. In addition, the TGI with HOP-92 NSCLC turned out to be 14.7 µM; with MCF7 breast, 8.6 µM.

Regarding `Cc1ccc(S(=O)(=O)NC(CCCCN)C(=O)CCl)cc1` (centres undefined), the GI50 with SW-620 colon was 43.1 µM; in the assay on MALME-3M melanoma, 68.7 µM; in the assay with OVCAR-4 ovarian, greater than 100 µM; in the assay with SNB-75 CNS, greater than 100 µM; in the assay with UO-31 renal, greater than 100 µM; in the assay on HOP-92 NSCLC, 20.2 µM. Also, the GI50 in the assay on MCF7 breast was 57.9 µM. Besides, the TGI in the assay with SW-620 colon is greater than 100 µM; in the assay with MALME-3M melanoma it was greater than 100 µM; in the assay with OVCAR-4 ovarian, greater than 100 µM; in the assay with SNB-75 CNS, greater than 100 µM; with UO-31 renal, greater than 100 µM; in the assay with HOP-92 NSCLC, 67.1 µM. The molecule also displayed a TGI with MCF7 breast greater than 100 µM.

Regarding `N#Cc1c(-c2ccc(Cl)cc2)n([O-])c2ccccc2[n+]1=O`, the GI50 is 12.7 µM with SW-620 colon; 1.99 µM with RPMI-8226 leukemia; 2.94 µM in the assay on OVCAR-4 ovarian; 21.4 µM in the assay on SNB-75 CNS; 13.7 µM in the assay on UO-31 renal; 1.61 µM with HOP-92 NSCLC. Moreover, the GI50 in the assay with MCF7 breast was 15.9 µM. The TGI in the assay with SW-620 colon was found to be 34.1 µM; in the assay with RPMI-8226 leukemia, 5.11 µM; in the assay with OVCAR-4 ovarian, 8.82 µM; in the assay on SNB-75 CNS it was 39.5 µM; with UO-31 renal, 29.7 µM; in the assay on HOP-92 NSCLC, 3.24 µM. In addition, the TGI with MCF7 breast is greater than 100 µM.

Consider `COc1ccc(N2CCN(CC(=O)N3CCN(c4nnc(-c5ccc(Cl)cc5)c(-c5ccc(Cl)cc5)n4)CC3)CC2)cc1`, for which the GI50 was 46.3 µM with SW-620 colon; 6.05 µM in the assay with RPMI-8226 leukemia; 8.8 µM in the assay with OVCAR-4 ovarian; 13.2 µM in the assay with SNB-75 CNS; 2.8 µM in the assay with UO-31 renal; 11.1 µM in the assay on HOP-92 NSCLC. For the same molecule, the GI50 in the assay with MCF7 breast was 3.91 µM. Moreover, the TGI in the assay with SW-620 colon is greater than 100 µM; with RPMI-8226 leukemia it was greater than 100 µM; in the assay with OVCAR-4 ovarian, greater than 100 µM; in the assay with SNB-75 CNS it was 55.4 µM; with UO-31 renal it was greater than 100 µM; in the assay on HOP-92 NSCLC, 30.5 µM. In the assay on MCF7 breast, this molecule came in with a TGI greater than 100 µM.

Regarding `CC(C)(O)C1CC(=O)C(C)(C2C(O)CC3(C)C4CC=C5C(CCC(O)C5(C)C)C4(C)C(=O)CC23C)O1` (centres undefined), the TGI in the assay on SW-620 colon, with RPMI-8226 leukemia, in the assay on OVCAR-4 ovarian, in the assay with SNB-75 CNS, with UO-31 renal and in the assay on HOP-92 NSCLC was greater than 100 µM each time. Also, the TGI in the assay with MCF7 breast was greater than 100 µM.

With `Cc1cccc(NC(=O)c2sc3nc4c(cc3c2N)CCC4)c1C`, the GI50 is 0.359 µM in the assay on SW-620 colon; 0.346 µM in the assay with RPMI-8226 leukemia; 1.33 µM in the assay on OVCAR-4 ovarian; 0.189 µM in the assay with SNB-75 CNS; 0.615 µM with UO-31 renal; 0.449 µM with HOP-92 NSCLC. Further, the GI50 with MCF7 breast was 0.261 µM. Moreover, the TGI in the assay with SW-620 colon is greater than 100 µM; in the assay with RPMI-8226 leukemia, 16.2 µM; with OVCAR-4 ovarian, 22.8 µM; with SNB-75 CNS it was 0.815 µM; with UO-31 renal it was greater than 100 µM; in the assay with HOP-92 NSCLC, 19 µM. For the same molecule, the TGI in the assay with MCF7 breast is 13.6 µM.

In the case of `O=C1c2cccc3cc4ccccc4c(c23)C(=O)N1CCCNCCNCCCN1C(=O)c2cccc3cc4ccccc4c(c23)C1=O`, the TGI in the assay with MALME-3M melanoma is 1.8 µM; with RPMI-8226 leukemia, 0.387 µM; in the assay on OVCAR-4 ovarian it was 1.58 µM; in the assay on SNB-75 CNS, 1.48 µM; in the assay with UO-31 renal, 1.96 µM.

As for `COc1cc2c(c(OC)c1OC)-c1c(c3ccc([N+](=O)[O-])cc3c(=O)n1CCCN=[N+]=[N-])C2=O`, the GI50 with SW-620 colon is 33.6 µM; with MALME-3M melanoma, 23.2 µM; with RPMI-8226 leukemia it was greater than 100 µM; with OVCAR-4 ovarian, 19.4 µM; in the assay on UO-31 renal, 4.92 µM; in the assay on HOP-92 NSCLC it was 21.5 µM. Moreover, the GI50 in the assay on MCF7 breast is 1.37 µM. Further, the TGI is greater than 100 µM with SW-620 colon; 96.9 µM in the assay on MALME-3M melanoma; greater than 100 µM in the assay on RPMI-8226 leukemia; 60.9 µM in the assay on OVCAR-4 ovarian; 72.5 µM in the assay on UO-31 renal; 80.2 µM with HOP-92 NSCLC. Further, in the assay on MCF7 breast, the TGI was greater than 100 µM.

As to `CN(C)c1ccc(/C=C/C(=O)c2ccc(Nc3nc(Nc4ccc(F)cc4)nc(Nc4ccc(Cl)cc4)n3)cc2)cc1`, the GI50 in the assay on SW-620 colon was 6.79 µM; in the assay with MALME-3M melanoma, 10.7 µM; in the assay on RPMI-8226 leukemia it was 3.53 µM; in the assay on OVCAR-4 ovarian it was 10.7 µM; with SNB-75 CNS, 9 µM; in the assay with UO-31 renal it was 3.22 µM. Moreover, in the assay with MCF7 breast, the GI50 was 2.61 µM. Moreover, the TGI was 33.6 µM in the assay on SW-620 colon; 33.8 µM in the assay on MALME-3M melanoma; 26.5 µM in the assay with RPMI-8226 leukemia; greater than 100 µM in the assay on OVCAR-4 ovarian; 38.9 µM with SNB-75 CNS; 21.4 µM in the assay on UO-31 renal. This molecule gave a TGI in the assay on MCF7 breast of 21.5 µM.
